Structures can show the parent of a compound that is named as a salt. Where two headings read alike, the source gives them in different places.
Columns and labels:
[1] = Local anaesthesic activity; assay type: in vivo; conditions: read-out: Local anaesthesic activity ED50
[2] = test system: mice; experiment: Anti-arrhythmic activity in mice; assay type: in vivo; conditions: Mus musculus, po, 0.5 h, read-out: Anti-arrhythmic activity: number of mice protected in relation with the number of tested mice
Protocol: ^(4) Number of mice protected in relation with the number of tested
mice (dose = 100 mg/kg per os; recording 30 min. after administration)

[3] = in vivo; conditions: mouse, ip
[4] = Peripherical vasodilatator activity (intra-arterial); assay type: in vivo; conditions: dose = 30 γ/kg intra-arterial
Description: activity equal to that of papaverine; ++++ = activity higher than that of
papaverine (dose = 30 γ /kg intra-arterial)

[5] = Solubility of salt in water; assay type: physicochemical
Protocol: To 1.20 g of 1-(3-methyl-4-methylthiophenyl)-2-isopropylaminoethanol in 40 ml of water, 1.96 ml of a 50% gluconic acid solution are added. The mixture is heated in water-bath during 1 hour at 70°, then the solution is lyophilised (2.18 g of the salt obtained are soluble in 5 ml of water and give a pH of 4.6).
To 1.2 g of 1-(3-methyl-4-methylthiophenyl)-2-isopropylaminoethanol in 32 ml of water, 0.53 g of a 85% aqueous lactic acid solution are added. The product is heated in a water-bath for 2 hours at 50°, then the solution is lyophilised. (1.55g of the salt obtained are soluble in 5 ml of water).

[6] = test system: isolated auricles of guinea pigs; conditions: dose 1.10 - 6 g/ml of bath
[7] = 100 mg/kg per os, recording 30 min. after administration

With CSc1ccc(C(O)C(C)NC(C)(C)C)cc1Cl (stereo not shown) [Table III No. 3] the ED50 [1] was > 5 mg/kg, the responders at 100 mg/kg [2] was 10% and the LD50 [3] was 440 mg/kg.
In the case of CSc1ccc(C(O)CN2CCCCC2)cc1Cl (stereo not shown) [Table III No. 24], the Peripherical vasodilatator activity [4] is reported as “+ ++” and the LD50 [3] is reported as 364 mg/kg.
CSc1c(C)cc(C(O)CNC(C)C)cc1Cl (stereo not shown) [Table III No. 64] showed an ED50 [1] of 4.1 mg/kg and an LD50 [3] of 182 mg/kg.
With CCCCSc1ccc(C(O)CN(C)C)cc1C (stereo not shown) [compound 94] the LD50 [3] was 150 mg/kg.
With CSc1ccc(C(O)CNC(C)C)cc1C (stereo not shown) [1-(3-Methyl-4-methylthiophenyl)-2-isopropylaminoethanol gluc] [1-(3-Methyl-4-methylthiophenyl)-2-isopropylaminoethanol gluconate] the “pH of solution of salt in water” value ([5]; 2.18 g in 5 ml of water) was 4.6 and the “amount of salt soluble in 5 ml of water” value [5] was ≥ 2.18 g.
With CCCCSc1ccc(C(O)CN2CCCC(C)C2)cc1C (stereo not shown) [compound 95] the LD50 [3] was 150 mg/kg.
CCc1cc(C(O)CNC(C)(C)C)ccc1SC (stereo not shown) [compound 50] gave an LD50 [3] of 150 mg/kg.
With CSc1ccc(C(O)CNC2CCCCC2)cc1C (stereo not shown) [Table IV No. 24] the ED50 [1] was > 5 mg/kg and the responders at 100 mg/kg [2] was 40%.
In the case of CCC(C(O)c1ccc(SC)c(Cl)c1)N1CCOCC1 (stereo not shown) [Table III No. 28], the ED50 [1] is reported as > 5 mg/kg.
For CCCCSc1ccc(C(O)CNC(C)(C)C)cc1C (stereo not shown) [compound 90], the LD50 [3] was 91 mg/kg.
For CCCCNCC(O)c1ccc(SCC)c(C)c1 (stereo not shown) [compound 80], the ED50 [1] was > 5 mg/kg and the LD50 [3] was 110 mg/kg.
With CCCCNCC(O)c1ccc(SC)c(Cl)c1 (stereo not shown) [Table III No. 15] the LD50 [3] was 110 mg/kg.
In the case of CCC(C)NCC(O)c1ccc(SC)c(C)c1 (stereo not shown) [Table III No. 33, 1-(3-Methyl-4-methylthiophenyl)-2-secbutylaminoethanol], the ED50 [1] is reported as ~5 mg/kg and the responders at 100 mg/kg [2] is reported as 40%.
For CCCCSc1ccc(C(O)CN2CCC(C)CC2)cc1C (stereo not shown) [compound 96], the LD50 [3] was 182 mg/kg.
Work on CSc1ccc(C(O)CNC(C)(C)C)cc1Cl (stereo not shown) [Table III No. 2] yielded a responders at 100 mg/kg [2] of 10%.
CSc1ccc(C(O)CN2CCCCC2)cc1C (stereo not shown) [Table IV No. 8] gave an ED50 ([1]; ED50, interval in brackets) of 1.6 mg/kg and a responders at 100 mg/kg [2, 7] of 20%.
In the case of CSc1ccc(C(O)CNC(C)C)cc1C (stereo not shown) [1-(3-Methyl-4-methylthiophenyl)-2-isopropylaminoethanol lact] [1-(3-Methyl-4-methylthiophenyl)-2-isopropylaminoethanol lactate], the “amount of salt soluble in 5 ml of water” value [5] is reported as ≥ 1.55 g.
Work on CSc1ccc(C(O)CNC(C)C)cc1C (stereo not shown) [Table III No. 1, 1-(3-methyl-4-methylthiophenyl)-2-isopropylaminoethanol] yielded an ED50 [1] of 4.5 mg/kg, a responders at 100 mg/kg [2] of 60% and an LD50 [3] of 150 mg/kg. For the same compound, the “Protection against anoxia, activity” value [6] was “++”.
With CCSc1ccc(C(O)CNCCc2ccccc2)cc1C (stereo not shown) [compound 81] the LD50 [3] was 75 mg/kg.
In the case of CSc1ccc(C(O)C(C)N2CCC(C)CC2)cc1C (stereo not shown) [Table III No. 20], the LD50 [3] is reported as 91 mg/kg.
In the case of CCC(C)NCC(O)c1ccc(SC)c(C)c1 (stereo not shown) [compound 33], the Peripherical vasodilatator activity [4] is reported as “++ +”.
For CSc1ccc(C(O)CNC(C)(C)C)cc1C (stereo not shown) [Table III No. 12], the “Protection against anoxia, activity” value [6] was “+”.
In the case of CCc1cc(C(O)CNC(C)CC)ccc1SC (stereo not shown) [compound 51], the Peripherical vasodilatator activity [4] is reported as “+ ++”.
Compound CSc1ccc(C(O)CNC(C)Cc2ccccc2)cc1C (stereo not shown) [compound 31] has an LD50 [3] of 75 mg/kg.
CCCCCCSc1ccc(C(O)CNCCC)cc1C (stereo not shown) [compound 112] gave an LD50 [3] of 364 mg/kg.
Compound CCCC(NC(C)CC)C(O)c1ccc(SC)c(Cl)c1 (stereo not shown) [compound 40] has an ED50 [1] of ~5 mg/kg.
With CSc1ccc(C(O)CNC2CCCCC2)cc1C (stereo not shown) [CH3 S--, 3CH3 (amine drawn)] the “Protection against anoxia, activity” value [6] was “++”.
CCC(C)NC(C)C(O)c1ccc(SC)c(Cl)c1 (stereo not shown) [Table III No. 8] gave an LD50 [3] of 150 mg/kg.
With CCCCCCSc1ccc(C(O)CN2CCOCC2)cc1C (stereo not shown) [compound 109] the LD50 [3] was 600 mg/kg.
For CCCCCCSc1ccc(C(O)CNC(C)(C)C)cc1C (stereo not shown) [compound 107], the LD50 [3] was 110 mg/kg.
Work on CCSc1ccc(C(O)CNC(C)(C)C)cc1C (stereo not shown) [Table III No. 73] yielded an ED50 [1] of ~5 mg/kg and an LD50 [3] of 220 mg/kg.
Work on CCSc1ccc(C(O)CNC2CCCCC2)cc1C (stereo not shown) [Table III No. 77] yielded an LD50 [3] of 91 mg/kg.
In the case of CC(C)NCC(O)COc1cccc2ccccc12 (stereo not shown) [Propranolol, reference compound], the ED50 [1] is reported as 1.4 mg/kg, the responders at 100 mg/kg [2] is reported as 100% and the “Protection against anoxia, activity” value [6] is reported as 0.
In the case of CSc1ccc(C(O)CN2CCC(C)CC2)cc1C (stereo not shown) [Table IV No. 27], the ED50 ([1]; ED50, interval in brackets) is reported as > 5 mg/kg and the responders at 100 mg/kg [2, 7] is reported as 20%.
For CSc1ccc(C(O)CNC(C)C)cc1F (stereo not shown) [Table III No. 58, 1-(3-fluoro-4-methylthiophenyl)-2-isopropylaminoethanol], the ED50 [1] was > 5 mg/kg and the responders at 100 mg/kg [2] was 20%.
Cc1cc(C(O)CNC(C)C)ccc1SC(C)C (stereo not shown) [compound 127] showed an LD50 [3] of 182 mg/kg.
Compound Cc1cc(C(O)CNC2CCCCC2)ccc1SC(C)C (stereo not shown) [compound 130] has an LD50 [3] of 75 mg/kg.
In the case of Cc1cc(C(O)CN2CCC(C)CC2)ccc1SC(C)C (stereo not shown) [compound 133], the LD50 [3] is reported as 110 mg/kg.
For CCCCCSc1ccc(C(O)CNCCCC)cc1C (stereo not shown) [compound 104], the LD50 [3] was 75 mg/kg.
Cc1cc(C(O)CN2CCC(C)CC2)ccc1SCC(C)C (stereo not shown) [compound 85] showed an LD50 [3] of 182 mg/kg.
For CCc1cc(C(O)CNC(C)C)ccc1SC (stereo not shown) [Table III No. 47, 1-(3-Ethyl-4-methylthiophenyl)-2-isopropylaminoethanol], the responders at 100 mg/kg [2] was 65% and the “Protection against anoxia, activity” value [6] was “++”.
In the case of CCSc1ccc(C(O)CNC(C)Cc2ccccc2)cc1C (stereo not shown) [compound 83], the LD50 [3] is reported as 110 mg/kg.
In the case of CCN(CC)CCOC(=O)c1ccc(N)cc1 [Procaine, reference compound], the ED50 [1] is reported as 1.8 mg/kg.
In the case of Cc1cc(C(O)CN2CCOCC2)ccc1SC(C)C (stereo not shown) [compound 126], the LD50 [3] is reported as 440 mg/kg.
Compound CCCCCCSc1ccc(C(O)CN2CCCCC2)cc1C (stereo not shown) [compound 108] has an LD50 [3] of 182 mg/kg.
In the case of COc1cc(C(O)CNC(C)(C)C)ccc1SC (stereo not shown) [Table IV No. 33, 1-(3-Methoxy-4-methylthiophenyl)-2-tertbutylaminoethanol hydrochloride], the responders at 100 mg/kg [2] is reported as 20%.
Compound CCCCCCCCNCC(O)c1ccc(SC)c(CC)c1 (stereo not shown) [compound 45] has an LD50 [3] of 75 mg/kg.
In the case of CSc1c(C)cc(C(O)CN2CCCCC2)cc1Cl (stereo not shown) [compound 62], the LD50 [3] is reported as 220 mg/kg.
With COc1ccc(Cc2nccc3cc(OC)c(OC)cc23)cc1OC [Papaverine, reference compound] the LD50 [3] was 300 mg/kg and the “Protection against anoxia, activity” value [6] was 0.
CCSc1ccc(C(O)CNC(C)C)cc1C (stereo not shown) [compound 74] showed an LD50 [3] of 150 mg/kg.
Work on CCCCSc1ccc(C(O)CN2CCC(C)CC2)cc1C (stereo not shown) [Table IV No. 63] yielded an ED50 ([1]; ED50, interval in brackets) of 4.1 mg/kg and a responders at 100 mg/kg [2, 7] of 20%.
With CSc1ccc(C(O)CN2CCCCC2)cc1C (stereo not shown) [CH3 S--, 3CH3 (amine drawn)] the “Protection against anoxia, activity” value [6] was “+”.
Compound CSc1ccc(C(O)CN)cc1C (stereo not shown) [compound 41] has an LD50 [3] of 150 mg/kg.
Compound Cc1cc(C(O)CNC(C)(C)C)ccc1SC(C)C (stereo not shown) [compound 125] has an LD50 [3] of 150 mg/kg.
Work on CCCCSc1ccc(C(O)CNC(C)C(O)c2ccccc2)cc1C (stereo not shown) [Table IV No. 66] yielded a responders at 100 mg/kg [2] of 20%.
For CCSc1ccc(C(O)CNC2CCCCC2)cc1C (stereo not shown) [Table IV No. 51], the ED50 [1] was > 5 mg/kg.
Compound CSc1ccc(C(O)CNC(C)Cc2ccccc2)cc1Cl (stereo not shown) [Table III No. 22] has an LD50 [3] of 55 mg/kg.
Work on CCCCCCCCNCC(O)c1ccc(SC(C)C)c(C)c1 (stereo not shown) [compound 131] yielded an LD50 [3] of 86 mg/kg.
With CCCCNCC(O)c1ccc(SCCCC)c(C)c1 (stereo not shown) [compound 97] the LD50 [3] was 110 mg/kg.
For CCc1cc(C(O)CNC(C)(C)C)ccc1SC (stereo not shown) [Table III No. 50], the ED50 [1] was > 5 mg/kg and the responders at 100 mg/kg [2] was 50%.
CCCCNCC(O)c1ccc(SC(C)C)c(C)c1 (stereo not shown) [compound 129] gave an LD50 [3] of 46 mg/kg.
CCCCSc1ccc(C(O)CN2CCCCC2)cc1C (stereo not shown) [compound 93] showed an LD50 [3] of 182 mg/kg.
Cc1cc(C(O)CN2CCCCC2)ccc1SC(C)C (stereo not shown) [compound 124] showed an LD50 [3] of 150 mg/kg.
Work on C=C[C@H]1C[N@@]2CC[C@H]1C[C@@H]2[C@@H](O)c1ccnc2ccc(OC)cc12 [Quinidine, reference compound] yielded a responders at 100 mg/kg [2, 7] of 20%.
Compound Cc1cc(C(O)CN2CCCCC2)ccc1SCC(C)C (stereo not shown) [compound 86] has an LD50 [3] of 110 mg/kg.
With CSc1ccc(C(O)CNC(C)C)cc1Cl (stereo not shown) [Table III No. 11, 1-(3-Chloro-4-methylthiophenyl)-2-isopropylaminoethanol] the ED50 [1] was > 5 mg/kg, the responders at 100 mg/kg [2] was 55% and the LD50 [3] was 150 mg/kg. For the same compound, the “Protection against anoxia, activity” value [6] was “++”.
For CCc1cc(C(O)CNC(C)CC)ccc1SC (stereo not shown) [Table III No. 51, 1-(3-Ethyl-4-methylthiophenyl)-2-secbutylaminoethanol], the ED50 [1] was > 5 mg/kg and the responders at 100 mg/kg [2] was 60%.
With CCCCCCCCSc1ccc(C(O)CNC(C)CC)cc1C (stereo not shown) [Table III No. 117] the responders at 100 mg/kg [2] was 30%.
With CCCCCSc1ccc(C(O)CNC(C)(C)C)cc1C (stereo not shown) [compound 102] the LD50 [3] was 91 mg/kg.
